From patent publication EP2140864A2 (H. Lundbeck A/S, priority 2001, dated 2002) come the findings set out here.

The structures appear in SMILES notation. Like-named read-outs stand apart in the source and are kept apart here.

For one assay, the target named is T1, human GAL3 receptor (Homo sapiens, UniProt O60755).
T1 construct: expressed in transfected cells
T1 sequence (O60755 1-368): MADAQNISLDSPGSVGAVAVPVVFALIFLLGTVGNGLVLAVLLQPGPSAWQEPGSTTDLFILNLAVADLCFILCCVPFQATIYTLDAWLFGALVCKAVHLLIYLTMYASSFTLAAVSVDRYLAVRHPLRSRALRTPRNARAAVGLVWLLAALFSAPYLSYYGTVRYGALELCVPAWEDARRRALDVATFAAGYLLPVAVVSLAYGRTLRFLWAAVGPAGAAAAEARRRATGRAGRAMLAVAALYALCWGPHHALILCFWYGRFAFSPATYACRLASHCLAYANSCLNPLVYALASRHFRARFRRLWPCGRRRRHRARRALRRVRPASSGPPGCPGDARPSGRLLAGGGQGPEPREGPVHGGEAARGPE
As to the kind of experiment: Radioligand binding at cloned human GAL3 receptor. The procedure, abridged: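 Compound vehicle, as final assay concentration, was 3% DMSO (indolones) or 1% ethanol/0.09% polypuronic acid F-127 (pyrimidines). Binding measured on fresh or frozen membranes of stably transfected LM(tk-) mouse fibroblasts carrying cloned human GAL3, in pH 7.4 HEPES buffer; values derived by nonlinear regression.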

The next assay deals with T2, human 5HT4 receptor (Homo sapiens, UniProt Q13639).
T2 construct: expressed in transfected cells
As to the kind of experiment: Radioligand binding, 5-HT4 receptor. As to the method: Other 5-HT Receptors: Other serotonin receptor binding assays were performed according to published methods: rat 5HT2C receptor (Julius et al., 1988); and 5-HT6 (Monsma, et al., 1993). The binding assays using the 5-HT4 receptor were performed according to the procedures described in U.S. Patent No. 5,766,879, the disclosure of which is hereby incorporated by reference in its entirety into this application.
(§1) Binding data were analyzed using nonlinear regression and statistical techniques available in the GraphPAD Prism package (San Diego, CA). Enzymatic assay data were derived from a standard curve of reference compound data.

A further assay has as its target T3, human dopamine D4 (Homo sapiens, UniProt P21917).
T3 construct: purchased BioSignal, Inc. (Montreal, Canada)
T3 sequence (P21917 1-419): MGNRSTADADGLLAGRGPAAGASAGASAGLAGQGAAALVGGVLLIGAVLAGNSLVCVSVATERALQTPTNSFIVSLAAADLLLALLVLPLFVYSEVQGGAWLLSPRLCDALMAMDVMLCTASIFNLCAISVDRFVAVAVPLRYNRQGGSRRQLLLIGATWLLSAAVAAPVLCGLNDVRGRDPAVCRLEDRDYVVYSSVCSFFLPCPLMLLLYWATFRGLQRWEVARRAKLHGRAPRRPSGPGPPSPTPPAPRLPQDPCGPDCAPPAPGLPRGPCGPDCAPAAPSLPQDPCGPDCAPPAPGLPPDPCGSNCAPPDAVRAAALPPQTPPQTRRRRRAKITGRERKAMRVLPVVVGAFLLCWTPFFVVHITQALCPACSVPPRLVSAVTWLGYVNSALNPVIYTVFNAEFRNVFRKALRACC
The assay is described as follows: Radioligand binding, dopamine D4 receptor.
Excerpt: Other receptors: Cell membranes expressing human dopamine D1, D2, D4 and rat D3 receptors were purchased through BioSignal, Inc. (Montreal, Canada). Binding assays using the histamine H1 receptor; dopamine receptors; and α1A, α1E, and α2 adrenergic receptors may be carried out according to the procedures described in U.S. Patent No. 5,780,485, the disclosure of which is hereby incorporated by reference in its entirety into this application. Binding assays using the dopamine D5 receptor may be carried out according to the procedures described in U.S. Patent No. 5,882,855, the disclosure of which is hereby incorporated by reference in its entirety into this application. Binding assays for the human α1D adrenergic receptor may be carried out according to the procedures described in U.S. Patent No. 6,156,518, the disclosure of which is hereby incorporated by reference in its entirety into this application.
as §1

The mark [1] stands for this setting: pyrimidines, cloned human receptor, read-out: Ki GalR3.
The mark [2] stands for this setting: Table 8; Ki h5HT4 divided by Ki hGAL3.
[3] abbreviates: Table 10; Ki hD4 divided by Ki hGAL3.
[4] abbreviates: indolones, cloned human receptor, read-out: Ki GalR3.

T2 sequence (Q13639 whole entry): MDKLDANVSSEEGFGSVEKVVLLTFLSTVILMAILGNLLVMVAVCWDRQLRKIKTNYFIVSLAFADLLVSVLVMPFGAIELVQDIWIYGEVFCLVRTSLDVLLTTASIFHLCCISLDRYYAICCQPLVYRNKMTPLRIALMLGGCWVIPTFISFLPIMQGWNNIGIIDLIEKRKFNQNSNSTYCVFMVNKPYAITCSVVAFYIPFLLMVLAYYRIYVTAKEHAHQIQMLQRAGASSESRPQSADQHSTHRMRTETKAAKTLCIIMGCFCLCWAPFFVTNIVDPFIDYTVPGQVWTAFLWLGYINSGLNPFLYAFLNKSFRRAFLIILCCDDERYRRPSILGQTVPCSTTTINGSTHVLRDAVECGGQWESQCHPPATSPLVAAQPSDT

`Cc1ccc(Nc2cc(N3CCCCC3)nc(N(C)CCc3c[nH]c4ccccc34)n2)cc1` [Example 11]: the inhibition constant Ki on human GAL3 receptor (Table 7, read-out: hGAL3 Ki) came to 91 nM; on human GAL3 receptor (Table 9, read-out: hGAL3 Ki), 91 nM; on human GAL3 receptor (setting [1]), 91 nM; at human 5HT4 receptor (Table 7; read-out: h5HT4 Ki) it was 1310 nM; on human dopamine D4 (Table 9; read-out: hD4 Ki) it was 4830 nM. Further, the “selectivity ratio h5HT4” value on human 5HT4 receptor (setting [2]) is on record as 14. Moreover, at human dopamine D4 (setting [3]), the “selectivity ratio hD4” value is recorded as above 30.

In the case of `CN(CCc1c[nH]c2ccccc12)c1nc(Nc2ccc(F)c(F)c2)cc(N2CCCCC2)n1` [Example 15], the Ki came out at 73 nM on human GAL3 receptor (Table 7, read-out: hGAL3 Ki); 73 nM on human GAL3 receptor (Table 9, read-out: hGAL3 Ki); 73 nM at human GAL3 receptor (setting [1]); 2300 nM at human 5HT4 receptor (Table 7; read-out: h5HT4 Ki); 13200 nM on human dopamine D4 (Table 9; read-out: hD4 Ki). Besides, the “selectivity ratio h5HT4” value at human 5HT4 receptor (setting [2]) is reported as above 30. For the same molecule, the “selectivity ratio hD4” value at human dopamine D4 (setting [3]) is above 30.

In the case of `COc1cccc(Nc2cc(N3CCCCC3)nc(N(C)CCc3c[nH]c4ccccc34)n2)c1` [Example 17], the inhibitory constant (Ki) stood at 87 nM on human GAL3 receptor (Table 7, read-out: hGAL3 Ki); 87 nM on human GAL3 receptor (Table 9, read-out: hGAL3 Ki); 87 nM on human GAL3 receptor (setting [1]); 2610 nM on human 5HT4 receptor (Table 7; read-out: h5HT4 Ki); 22200 nM on human dopamine D4 (Table 9; read-out: hD4 Ki). Further, the “selectivity ratio h5HT4” value on human 5HT4 receptor (setting [2]) is listed as 30. Further, on human dopamine D4 (setting [3]), the “selectivity ratio hD4” value is reported as above 100.

As to `Cc1ccc(Nc2cc(N3CCCCC3)nc(N(C)CCc3ccccc3)n2)cc1` [Example 22], the Ki at human GAL3 receptor (Table 7, read-out: hGAL3 Ki) is 28 nM; on human GAL3 receptor (Table 9, read-out: hGAL3 Ki), 28 nM; on human GAL3 receptor (setting [1]), 28 nM; on human 5HT4 receptor (Table 7; read-out: h5HT4 Ki) it was 2460 nM; on human dopamine D4 (Table 9; read-out: hD4 Ki) it was 11600 nM. Besides, at human 5HT4 receptor (setting [2]), the “selectivity ratio h5HT4” value is on record as above 30. For the same molecule, the “selectivity ratio hD4” value on human dopamine D4 (setting [3]) is recorded as above 100.

Regarding `Cc1ccc(Nc2cc(N3CCCCC3)nc(N3CCN(c4ncccc4C(F)(F)F)CC3)n2)cc1` [Example 34], at human GAL3 receptor (Ki at GAL1 divided by Ki at human GAL3), the “GAL1/GAL3 Ki ratio” value came out at 39. The Ki came out at 23 nM on human GAL3 receptor (Table 7, read-out: hGAL3 Ki); 23 nM at human GAL3 receptor (Table 9, read-out: hGAL3 Ki); 23 nM at human GAL3 receptor (setting [1]); 20800 nM on human 5HT4 receptor (Table 7; read-out: h5HT4 Ki); 18700 nM at human dopamine D4 (Table 9; read-out: hD4 Ki). For the same molecule, the “selectivity ratio h5HT4” value at human 5HT4 receptor (setting [2]) is above 100. Moreover, the “selectivity ratio hD4” value at human dopamine D4 (setting [3]) is given as above 100.

Regarding `COC[C@@H]1[C@@H](c2ccccc2)OCCN1c1nc(Nc2ccc(C)cc2)cc(N2CCCCC2)n1` [Example 49], the Ki stood at 211 nM at human GAL3 receptor (read-out: Ki GalR3, pyrimidines, cloned human receptor); 211 nM at human GAL3 receptor (read-out: hGAL3 Ki, Table 7); 211 nM on human GAL3 receptor (read-out: hGAL3 Ki, Table 9); 13200 nM on human 5HT4 receptor (read-out: h5HT4 Ki; Table 7); 45800 nM on human dopamine D4 (read-out: hD4 Ki; Table 9). For the same molecule, at human 5HT4 receptor (setting [2]), the “selectivity ratio h5HT4” value is on record as above 30. Besides, the “selectivity ratio hD4” value at human dopamine D4 (setting [3]) is reported as above 100.

For `CN(C)c1cc(Nc2ccc(Cl)c(Cl)c2)nc(Nc2ccccc2)n1` [Example 60], the Ki at human GAL3 receptor (Table 7, read-out: hGAL3 Ki) came out at 86 nM; on human GAL3 receptor (Table 9, read-out: hGAL3 Ki), 86 nM; on human GAL3 receptor (setting [1]) it was 86 nM; at human 5HT4 receptor (Table 7; read-out: h5HT4 Ki), 1180 nM; at human dopamine D4 (Table 9; read-out: hD4 Ki), 48800 nM. Further, the “selectivity ratio h5HT4” value on human 5HT4 receptor (setting [2]) is listed as 14. Also, at human dopamine D4 (setting [3]), the “selectivity ratio hD4” value is listed as above 100.

`Cc1ccc(Nc2cc(N(C)C)nc(N(C)CCc3c[nH]c4ccccc34)n2)cc1` [Example 77]: the Ki at human GAL3 receptor (Table 7, read-out: hGAL3 Ki) worked out at 79 nM; at human GAL3 receptor (Table 9, read-out: hGAL3 Ki) it was 79 nM; on human GAL3 receptor (setting [1]), 79 nM; on human 5HT4 receptor (Table 7; read-out: h5HT4 Ki), 1320 nM; at human dopamine D4 (Table 9; read-out: hD4 Ki), 504 nM. Further, the “selectivity ratio h5HT4” value on human 5HT4 receptor (setting [2]) came out at 17. In addition, at human dopamine D4 (setting [3]), the “selectivity ratio hD4” value turned out to be 6.

In the case of `O=C1C(=Nc2cccc(C(F)(F)F)c2)c2ccccc2N1c1ccccc1` [Example 92, 1-PHENYL-3- [[3-(TRIFLUOROMETHYL)PHENYL]IMINO]-1,3-DIHYDRO-2H-INDOL-2-ONE], the “selectivity ratio h5HT4” value on human 5HT4 receptor (setting [2]) was found to be 2. The “selectivity ratio hD4” value at human dopamine D4 (setting [3]) is listed as above 100.

Consider `O=C1C(=Nc2cccc(Cl)c2)c2ccccc2N1c1ccccc1` [Example 94, 3-[(3-CHLOROPHENYL)IMINO]-1-PHENYL-1,3-DIHYDRO-2H-INDOL-2-ONE], for which the inhibition constant Ki on human GAL3 receptor (Table 7, read-out: hGAL3 Ki) is 49 nM; at human GAL3 receptor (Table 9, read-out: hGAL3 Ki), 49 nM; at human GAL3 receptor (setting [4]) it was 49 nM; at human 5HT4 receptor (Table 7; read-out: h5HT4 Ki), 4120 nM; on human dopamine D4 (Table 9; read-out: hD4 Ki), above 50000 nM. The “selectivity ratio h5HT4” value at human 5HT4 receptor (setting [2]) is given as above 30. Besides, the “selectivity ratio hD4” value at human dopamine D4 (setting [3]) is above 100.

On to `O=C1C(=Nc2ccc(C(F)(F)F)cc2)c2ccccc2N1c1ccccc1` [Example 95, 1-PHENYL-3-[[4-(TRIFLUOROMETHYL)PHENYL]IMINO]-1,3-DIHYDRO-2H-INDOL-2-ONE], for which the Ki at human GAL3 receptor (Table 7, read-out: hGAL3 Ki) was 29 nM; at human GAL3 receptor (Table 9, read-out: hGAL3 Ki), 29 nM; on human GAL3 receptor (setting [4]), 29 nM; on human 5HT4 receptor (Table 7; read-out: h5HT4 Ki), 3030 nM; on human dopamine D4 (Table 9; read-out: hD4 Ki), above 50000 nM. Further, the “selectivity ratio h5HT4” value on human 5HT4 receptor (setting [2]) is reported as above 100. Moreover, the “selectivity ratio hD4” value at human dopamine D4 (setting [3]) is given as above 100.

Consider `O=C1C(=Nc2ccc(Cl)cc2)c2ccccc2N1c1ccccc1` [Example 97, 3-[(4-CHLOROPHENYL)IMINO]-1-PHENYL-1,3-DIHYDRO-2H-INDOL-2-ONE], for which the Ki on human GAL3 receptor (Table 7, read-out: hGAL3 Ki) is 51 nM; on human GAL3 receptor (Table 9, read-out: hGAL3 Ki), 51 nM; at human GAL3 receptor (setting [4]), 51 nM; on human 5HT4 receptor (Table 7; read-out: h5HT4 Ki), 2550 nM; on human dopamine D4 (Table 9; read-out: hD4 Ki), above 50000 nM. For the same molecule, at human 5HT4 receptor (setting [2]), the “selectivity ratio h5HT4” value is listed as above 30. Further, the “selectivity ratio hD4” value on human dopamine D4 (setting [3]) is recorded as above 100.

Regarding `O=C1C(=Nc2ccc(Br)cc2)c2ccccc2N1c1ccccc1` [Example 98, 3-[(4-BROMOPHENYL)IMINO]-1-PHENYL-1,3-DIHYDRO-2H-INDOL-2-ONE], the inhibitory constant (Ki) is 38 nM at human GAL3 receptor (Table 7, read-out: hGAL3 Ki); 38 nM at human GAL3 receptor (Table 9, read-out: hGAL3 Ki); 38 nM on human GAL3 receptor (setting [4]); 1210 nM at human 5HT4 receptor (Table 7; read-out: h5HT4 Ki); above 50000 nM at human dopamine D4 (Table 9; read-out: hD4 Ki). Moreover, the “selectivity ratio h5HT4” value at human 5HT4 receptor (setting [2]) was above 30. Also, the “selectivity ratio hD4” value on human dopamine D4 (setting [3]) is given as above 100.

As to `O=C1C(=Nc2cc(Cl)cc(Cl)c2)c2ccccc2N1c1ccccc1` [Example 103, 3-[(3,5-DICHLOROPHENYL)IMINO]-1-PHENYL-1,3-DIHYDRO-2H-INDOL-2-ONE], the Ki on human GAL3 receptor (setting [4]) stood at 68 nM.

By Ki is commonly meant a measure of affinity in units of concentration, obtained from inhibition or displacement.
